Data from paper PMC9404985, “Development of Dicationic Bisguanidine-Arylfuran Derivatives as Potent Agents against Gram-Negative Bacteria” (Antibiotics, 2022).

How the values were obtained:
[1] = test system: Klebsiella pneumoniae CCUG # 225T; assay: MIC of established antibiotics, micro-broth dilution; details: read-out: MIC Klebsiella pneumoniae CCUG 225T
[2] = test system: E. hormaechei (CCUG #58962); assay: Antibacterial activity against isolates (Omnilog, Biolog redox dye); type: cell-based, Enterobacter hormaechei; details: Enterobacter hormaechei, CCUG58962; ca-MH broth, 24 h, 37 °C
Experimental: (§1) The antibacterial activities of eight compounds (1, 3, 4, 6, 8, 10, 16, and 17) were tested against 10 different isolates of Gram-negative bacteria from human and other sources, two E. coli (CCUG #67180 and CCUG #17620/ATCC #25922, control strain), two K. pneumoniae (CCUG #58547 and CCUG #225T), two P. aeruginosa (CCUG #17619 and CCUG #59347), two A. baumannii (CCUG #57035 and CCUG #57250), E. cloacae (CCUG #6323T), and E. hormaechei (CCUG #58962) in a 96-well plate format. […] Bacterial mass from the ten isolates grown overnight on horse blood or Mueller–Hinton agar plates was suspended in ca-MH and adjusted to a final inoculum cell density of ~5 × 10^5 CFU/mL. For all assays, Biolog redox dye A diluted 100× from the stock solution was used for measurements of all ten isolates (up to a total volume of 120 µL per well). All plates included one well per isolate with only inoculum and dye but no test compound (i.e., positive control) and one well per isolate with inoculum, dye and DMSO diluted 1667×, corresponding to the DMSO concentration in the wells with the highest concentration of test compound. All measurements were performed using the Omnilog microplate reader (Biolog, Hayward, CA, USA) where the 96-well plates were read at 15 min intervals for a total of 24 h at 37 °C.

[3] = test system: Escherichia coli CCUG # 17620; assay: MIC of established antibiotics, micro-broth dilution; details: CCUG17620, read-out: MIC Escherichia coli CCUG 17620
[4] = test system: K. pneumoniae (CCUG #58547); assay: Antibacterial activity against isolates (Omnilog, Biolog redox dye); type: cell-based, Klebsiella pneumoniae; details: Klebsiella pneumoniae, CCUG58547; ca-MH broth, 24 h, 37 °C
Experimental: as §1

[5] = test system: Escherichia coli CCUG # 67180; assay: MIC of established antibiotics, micro-broth dilution; details: CCUG67180, read-out: MIC Escherichia coli CCUG 67180
[6] = test system: A. baumannii (CCUG #57250); assay: Antibacterial activity against isolates (Omnilog, Biolog redox dye); type: cell-based, Acinetobacter baumannii; details: Acinetobacter baumannii, ca-MH broth, 24 h, 37 °C
Experimental: (§2) The antibacterial activities of eight compounds (1, 3, 4, 6, 8, 10, 16, and 17) were tested against 10 different isolates of Gram-negative bacteria from human and other sources, two E. coli (CCUG #67180 and CCUG #17620/ATCC #25922, control strain), two K. pneumoniae (CCUG #58547 and CCUG #225T), two P. aeruginosa (CCUG #17619 and CCUG #59347), two A. baumannii (CCUG #57035 and CCUG #57250), E. cloacae (CCUG #6323T), and E. hormaechei (CCUG #58962) in a 96-well plate format. The compounds to test were 3-fold diluted in six steps in cation-adjusted Mueller-Hinton (ca-MH) broth to final concentrations spanning from 30 to 0.12 µM, i.e., a 1667–416,667 times dilution from the 50 mM stocks. Bacterial mass from the ten isolates grown overnight on horse blood or Mueller–Hinton agar plates was suspended in ca-MH and adjusted to a final inoculum cell density of ~5 × 10^5 CFU/mL. For all assays, Biolog redox dye A diluted 100× from the stock solution was used for measurements of all ten isolates (up to a total volume of 120 µL per well). All plates included one well per isolate with only inoculum and dye but no test compound (i.e., positive control) and one well per isolate with inoculum, dye and DMSO diluted 1667×, corresponding to the DMSO concentration in the wells with the highest concentration of test compound. All measurements were performed using the Omnilog microplate reader (Biolog, Hayward, CA, USA) where the 96-well plates were read at 15 min intervals for a total of 24 h at 37 °C.

[7] = test system: Enterobacter hormaechei CCUG # 58962; assay: MIC of established antibiotics, micro-broth dilution; details: CCUG58962, read-out: MIC Enterobacter hormaechei CCUG 58962
[8] = test system: Acinetobacter baumannii CCUG # 57250; assay: as above; details: CCUG57250, read-out: MIC Acinetobacter baumannii CCUG 57250
[9] = test system: A. baumannii (CCUG #57035); assay: Antibacterial activity against isolates (Omnilog, Biolog redox dye); type: cell-based, Acinetobacter baumannii; details: Acinetobacter baumannii, CCUG57035; ca-MH broth, 24 h, 37 °C
Experimental: as §1

[10] = test system: Enterobacter cloacae CCUG # 6323T; assay: MIC of established antibiotics, micro-broth dilution; details: read-out: MIC Enterobacter cloacae CCUG 6323T
[11] = test system: K. pneumoniae (CCUG #225T); assay: Antibacterial activity against isolates (Omnilog, Biolog redox dye); type: cell-based, Klebsiella pneumoniae; details: Klebsiella pneumoniae; ca-MH broth, 24 h, 37 °C
Experimental: as §2

[12] = test system: P. aeruginosa (CCUG #17619); assay: as above; type: cell-based, Pseudomonas aeruginosa; details: Pseudomonas aeruginosa, CCUG17619; ca-MH broth, 24 h, 37 °C
Experimental: as §2

[13] = test system: E. coli (CCUG #17620/ ATCC #25922); assay: as above; type: cell-based, Escherichia coli; details: Escherichia coli; ca-MH broth, 24 h, 37 °C
Experimental: as §2

[14] = test system: E. coli (CCUG #67180); assay: as above; type: cell-based, Escherichia coli; details: Escherichia coli, ca-MH broth, 24 h, 37 °C
Experimental: as §2

[15] = test system: Klebsiella pneumoniae CCUG # 58547; assay: MIC of established antibiotics, micro-broth dilution; details: CCUG58547, read-out: MIC Klebsiella pneumoniae CCUG 58547
[16] = test system: Pseudomonas aeruginosa CCUG # 59347; assay: as above; details: CCUG59347, read-out: MIC Pseudomonas aeruginosa CCUG 59347
[17] = test system: E. cloacae (CCUG #6323T); assay: Antibacterial activity against isolates (Omnilog, Biolog redox dye); type: cell-based, Enterobacter cloacae; details: Enterobacter cloacae; ca-MH broth, 24 h, 37 °C
Experimental: as §2

[18] = test system: Pseudomonas aeruginosa CCUG # 17619; assay: MIC of established antibiotics, micro-broth dilution; details: CCUG17619, read-out: MIC Pseudomonas aeruginosa CCUG 17619
[19] = test system: P. aeruginosa (CCUG #59347); assay: Antibacterial activity against isolates (Omnilog, Biolog redox dye); type: cell-based, Pseudomonas aeruginosa; details: Pseudomonas aeruginosa, CCUG59347; ca-MH broth, 24 h, 37 °C
Experimental: as §1

[20] = test system: Acinetobacter baumannii CCUG # 57035; assay: MIC of established antibiotics, micro-broth dilution; details: CCUG57035, read-out: MIC Acinetobacter baumannii CCUG 57035

- MIC [1]: 0.25 µM
- EC50 [2]: 78.4 µM
- EC90 [2]: 158 µM
- MIC [3]: 0.25 to 0.5 µM
- EC50 [4]: 324 µM
- EC90 [4]: 478 µM
- MIC [5]: 280 µM
- EC90 ([6]; CCUG57250, 24 h): 48 µM
- EC50 ([6]; CCUG57250): 23.4 µM
- MIC [7]: 280 µM
- MIC [8]: 36 µM
- EC50 [9]: 430 µM
- EC90 [9]: 681 µM
- MIC [10]: 9 to 36 µM
- EC50 [11]: 0.2 µM
- EC90 [11]: 0.3 µM
- EC50 [12]: 13 µM
- EC90 [12]: 18.4 µM
- EC50 [13]: 0.2 µM
- EC90 [13]: 0.3 µM
- EC90 ([14]; CCUG67180, 24 h): 183 µM
- EC50 ([14]; CCUG67180): 161 µM
- MIC [15]: 560 µM
- MIC [16]: > 560 µM
- EC50 [17]: 2.1 µM
- EC90 [17]: 4.5 µM
- MIC [18]: 36 µM
- EC50 [19]: 1510 µM
- EC90 [19]: 1680 µM
- MIC [20]: > 560 µM
SMILES: CO/N=C(\C(=O)N[C@@H]1C(=O)N2C(C(=O)O)=C(COC(C)=O)CS[C@H]12)c1csc(N)n1 [CTX, Cefotaxime, reference compound]
